According to patent publication US20080145316A1, “Skin coating with microbial indicator” (priority 2006, published 2008):

Experiments:
E. coli = experiment: Colour change of cured film containing indicator dye on contact with E. coli suspension; settings: for time to visible color change of film / visually observed color change: 100 μL E. coli 10^5 CFU/mL on cured InteguSeal film, dye 200-300 ppm
Method: (§1) A 2 gram solution of 300 ppm Phenol Red (from Sigma-Aldrich) in InteguSeal® skin sealant was prepared by mixing the ingredients to give a pale pink-gray liquid. 25 mg of the mixture was then placed onto a glass slide and spread out using a glass rod to give a thin coating smear on the glass. After the mixture fully cured (5 minutes) 100 μL of suspension of E. coli bacteria at 10^5 CFU/mL was placed onto the cured sealant and visually observed for any color change. […] No color change or development was observed when the color media or water was placed on the sealant film.
(§2) Reichardt's dye (from Sigma-Aldrich) was mixed into 2 grams of InteguSeal® skin sealant containing an extra 0.2 gram of tributyl o-acetylcitrate placticizer (from Sigma-Aldrich) to give a deep blue solution with 200 ppm concentration of the dye. A drop (25 mg) of the mixture was then placed onto a microscope glass slide (5 cm×7.5 cm) and spread out using a glass rod to give thin coating smear (3 cm×2 cm). After complete cure had occurred (5 minutes) the cured film was exposed to a suspension of E. coli (gram negative bacteria) at 10^5 CFU/mL (colony forming units). 100 μL of this suspension was placed onto a spot on the cured film and the area observed. In less than 10 seconds the area in contact with the bacteria suspension decolorized, visually indicating the contamination. When a 100 μL sample of the control media broth or water alone was placed on the sealant no color discharge was observed. On a separate untouched part of the cured film was placed 100 μL suspension of A. niger (mold) at 10^5 CFU/mL and the area again observed. In less than 10 seconds the Reichardt's dye had decolorized where the mold suspension was in contact with the film.
Phenol red was dissolved in 3 other curable resins at a concentration of 300 ppm and tested with E. coli as described in example 5 above. The resins tried were: • Elmer's glue-all (Elmer's Products Inc., Columbus Ohio) • Contact cement (DAP Weldwood Inc., Dayton, Ohio) • Gelatin USP (unflavored. The Kroger Co., Cincinnati, Ohio) 100 μL suspension of E. coli was then placed on the cured film and visually observed. In all three resins the area in direct contact with the bacteria suspension turned red.

A. niger = experiment: Colour change of cured skin sealant film containing indicator dye on contact with A. niger suspension; settings: 100 μL A. niger (mold) 10^5 CFU/mL on cured InteguSeal film, dye 200 ppm
Method: as §2

S. aureus [1] = experiment: Colour change of cured skin sealant film containing indicator dye on contact with S. aureus suspension; settings: 100 μL S. aureus 10^6 CFU/mL on cured InteguSeal film, dye 200-300 ppm
Method: Reichardt's dye (from Sigma-Aldrich Chemical Co. Inc., Milwaukee Wis.) was mixed into 2 grams of InteguSeal® skin sealant (Medlogic Global Ltd., Cornwall, UK) containing an extra 0.2 gram of tributyl o-acetylcitrate placticizer (from Sigma-Aldrich) to give a deep blue solution with 200 ppm concentration of the dye. A drop (25 mg) of the mixture was then placed onto a microscope glass slide (5 cm×7.5 cm) and spread out using a glass rod to give thin coating smear (3 cm×2 cm). After complete cure had occurred (5 minutes) the cured film was exposed to a suspension of S. aureus (gram positive bacteria) at 10^6 CFU/mL (colony forming units). 100 μL of this suspension was placed onto a spot on the cured film and the area observed. In less than 10 seconds the area in contact with the bacteria suspension decolorized, visually indicating the contamination. When a 100 μL sample of the control media broth or water alone was placed on the sealant no color discharge was observed.
A 2 gram blue-purple solution of 300 ppm Chrome Azurol S (from Sigma-Aldrich) in InteguSeal® skin sealant was prepared to give a 300 ppm concentration of the dye. A drop 25 mg of the mixture was placed onto a glass slide and spread using a glass rod to give a thin smear. The sealant was allowed to fully cure (5 minutes). After this time 100 μL suspension of S. aureus at 10^6 CFU/mL was placed on the cure sealant and then visually observed for a color change.
as §1, with “S. aureus” for “E. coli”, “10^6” for “10^5”
A 2 gram sample of 300 ppm Eriochrome Blue Black B (from Sigma-Aldrich) in InteguSeal® skin sealant was prepared by mixing the ingredients to give a gray-blue mixture. 25 mg of the mixture was placed on a glass slide and spread with a glass rod to give a thin smear. The film was allowed to fully cure (5 minutes) and then 100 μL of S. aureus suspension at 10^6 CFU/mL was applied to the cured film and observed for a color change. […] No color change was observed when control media or water was applied to the film.

S. aureus [2] = experiment: Color change measurement with spectrometer (Minolta cm-2600d), film area before and after exposure to microbes; settings: CIELAB, cured InteguSeal film before vs after exposure to microbes
Description: The color change inherent in the skin coating with indicator may be considered as a visual indicator with the user visually observing a color change as a signal that infection or microbial contamination is present, or the color change could also be measured electronically. Such measurements could be conducted using an optical device or other spectroscopic methods known to those skilled in the art to measure changes in color such as spectrophotometers and spectrodenitometers. The instruments measure color space (as described in “Pocket guide to digital printing” (1997) by Frank Cost, Delmar Publishers Inc., at page 144), the most widely used color space is CIELAB. This defines three variables, L*, a*, and b*, that have the following meaning:
Because CIELAB color space is somewhat uniform, a single number can be calculated that represents the difference between two colors as perceived by the human being. This difference is termed ΔE and is calculated by taking the square root of the sum of the squares of the three differences (ΔL*, Δa*, and Δb*) between the two colors (i.e. starting color and after color change).
Although in each of the examples described above the color change when in contact with microbes was clearly visible it would also be possible to measure this color change with an optical color change meter or sensor. This was conduced on Examples 1, 2, and 3 by illustration. The color change was measured using a spectrometer (Minolta cm-2600d. Minolta Co., Japan) and the reading obtained by measuring the film area before and after exposure to microbes. The reading was recorded in units of ΔE.

| Structure (SMILES) | time to visible color change of film (E. coli) | visually observed color change (E. coli) | time to visible color change of film (A. niger) | visually observed color change (A. niger) | time to visible color change of film (S. aureus [1]) | visually observed color change (S. aureus [1]) | color change ΔE (S. aureus [2]) | visually observed color change in other curable resins (E. coli; 300 ppm dye in Elmer's glue-all, Contact cement, Gelatin USP, 100 μL E. coli suspension on cured film, all three resins) |
| --- | --- | --- | --- | --- | --- | --- | --- | --- |
| [O-]c1c(-c2ccccc2)cc(-[n+]2c(-c3ccccc3)cc(-c3ccccc3)cc2-c2ccccc2)cc1-c1ccccc1 [Reichardt's dye, 4-(2,4,6-triphenylpyridinium-1-yl)-2,6-diphenylphenolate] | less than 10 seconds | decolorized | less than 10 seconds | decolorized | less than 10 seconds | decolorized | 32 ΔE | – |
| O=S(=O)([O-])c1cc(O)c(/N=N/c2ccc3ccccc3c2O)c2ccccc12.[Na+] [Eriochrome Blue Black B] | – | – | – | – | less than 5 seconds | film color was discharged to leave a colorless spot | – | – |
| O=S1(=O)OC(c2ccc(O)cc2)(c2ccc(O)cc2)c2ccccc21 [Phenol Red, phenolsulfonephthalein] | less than 5 seconds | bright red color developed | – | – | less than 5 seconds | bright red color developed | 35 ΔE | turned red |
| CC1=C/C(=C(\c2cc(C)c(O)c(C(=O)[O-])c2)c2c(Cl)ccc(S(=O)(=O)[O-])c2Cl)C=C(C(=O)[O-])C1=O.[Na+].[Na+].[Na+] [Chrome Azurol S] | – | – | – | – | ≤ 5 s | red color developed | 27 ΔE | – |
